# From ChEMBL document CHEMBL1201862, “PubChem BioAssay data set” (2004)
# Active and inactive are the calls of the source.
# Assays:
# [1] = tested on: BJ; assay: cytotoxicity toward BJ-TERT-LT-ST fibroblasts, dose response, cell-based, RAS-independent, luminescence (AID 1935); assay type: functional; conditions: Homo sapiens;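 also: BJ fibroblasts immortalized with TERT plus LT and ST oncogenes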
# [2] = tested on: BJ; assay: cells; assay type: functional, cell-based; conditions: Homo sapiens
# [3] = cytotoxicity in HEK-293T cells, dose response, cytotoxicity control for BCR NF-kB inhibitor project, luminescence, B-cell screen hits (AID 489021); assay type: functional, cell-based;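 also: HEK-293T cells carrying an NF-kB luciferase reporter; cells exposed to compound for about 14 hours before viability readout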
# [4] = miR-122 activators in hepatoma reporter cells, dose response, cell-based, Huh7 psiCHECK-miR122, Renilla luciferase, cherry-picked (AID 651956); assay type: functional;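 also: huh7 hepatoma cells stably carrying a psiCHECK-2 miR-122 sensor plasmid; renilla luciferase signal reporting endogenous miR-122 activity after 48 h compound exposure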
# [5] = cytotoxicity toward DRD oncogenic fibroblasts, dose response, cell-based, non-viral oncogenic, luminescence (AID 1934); assay type: functional; conditions: Homo sapiens
# [6] = HepG2 cell cytotoxicity, dose response, cytotoxicity control for Shn3 inhibitor project, CellTiter-Glo, cherry-picked (AID 624134); assay type: functional, cell-based
# [7] = HEK293T cytotoxicity, dose response, cytotoxicity control for miR-122 modulator project, cell-based, activator set, cherry-pick (AID 720690); assay type: functional;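 also: HEK293T human cells scored for general mammalian cytotoxicity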
# [8] = control 3'UTR Renilla luciferase suppression, dose response, counter-screen for Shn3 inhibitor project, cell-based, Clone20-Shn3RL, cherry-picked (AID 624133); assay type: functional
# [9] = tested on: INS1; assay: beta cell apoptosis inhibitors, cytokine rescue, dose response, luminescence, retest (AID 449756); assay type: functional, cell-based; conditions: Rattus norvegicus;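 also: cell death triggered by IL-1 beta plus TNF-alpha plus IFN-gamma mixture; protective hits raise ATP signal compared with cytokine alone wells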
# [10] = tested on: BJ; assay: cytotoxicity toward BJ-TERT fibroblasts, dose response, cell-based, RAS-independent, luminescence (AID 1933); assay type: functional; conditions: Homo sapiens
# [11] = target: T1, Streptokinase A (Streptococcus pyogenes serotype M1, UniProt P10520); assay: S. pyogenes streptokinase expression inhibitors, potency, dose response, plasminogen activation absorbance, OD405 (AID 1914); assay type: functional, Streptococcus pyogenes M1 GAS;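 also: secreted streptokinase activity via plasminogen activation per viability signal from cell pellet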
# T1 sequence (P10520 whole entry): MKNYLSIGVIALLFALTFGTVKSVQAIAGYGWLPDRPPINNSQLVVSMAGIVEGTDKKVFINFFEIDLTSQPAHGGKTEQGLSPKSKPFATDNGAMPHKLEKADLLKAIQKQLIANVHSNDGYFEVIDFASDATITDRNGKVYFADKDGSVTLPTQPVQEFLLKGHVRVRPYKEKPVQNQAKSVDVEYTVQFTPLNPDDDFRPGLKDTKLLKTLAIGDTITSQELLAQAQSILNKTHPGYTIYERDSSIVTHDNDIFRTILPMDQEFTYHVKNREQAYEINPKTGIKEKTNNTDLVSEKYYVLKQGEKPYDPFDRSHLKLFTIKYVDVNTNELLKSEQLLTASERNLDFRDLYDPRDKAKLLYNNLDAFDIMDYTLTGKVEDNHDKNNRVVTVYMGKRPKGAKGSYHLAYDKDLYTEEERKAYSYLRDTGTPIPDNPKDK
# [12] = Shn3 3'UTR reporter inhibitors, dose response, cell-based, Clone20 osteoblasts, firefly luciferase, cherry-picked (AID 624132); assay type: functional;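 also: firefly luciferase luminescence from reporter carrying the Shn3 3'UTR in osteoblasts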
# [13] = tested on: Streptococcus; assay: Group A Streptococcus viability loss, dose response, counter-screen for streptokinase expression inhibitor project, luminescence, BacTiterGlo (AID 1915); assay type: functional, organism-based;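 also: potency for reduction of bacterial viability or growth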
# [14] = HEK293T cytotoxicity, dose response, cytotoxicity control for miR-122 modulator project, cell-based, inhibitor set, cherry-pick, set 2 (AID 720697); assay type: functional
# [15] = inhibitors of PGC1a acetylation in cells, dose response, cell-based, cherry-picked samples (AID 720514); assay type: functional;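 also: potency may reflect raised or lowered acetylation signal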
# [16] = tested on: Streptococcus sp. 'group A'; assay: growth inhibition of control SK(-) GAS strain, dose response, counter-screen for streptokinase expression inhibitor project, luminescence, kanamycin, BacTiterGlo, confirmation (AID 1900); assay type: functional, organism-based
# [17] = target: T2, Ubiquitin-conjugating enzyme E2 N (Homo sapiens, UniProt P61088); assay type: functional;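 also: Dose-response confirmation in a TR-FRET assay detecting UBC13-driven polyubiquitin chain formation, inhibition measured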
# T2 sequence (P61088 whole entry): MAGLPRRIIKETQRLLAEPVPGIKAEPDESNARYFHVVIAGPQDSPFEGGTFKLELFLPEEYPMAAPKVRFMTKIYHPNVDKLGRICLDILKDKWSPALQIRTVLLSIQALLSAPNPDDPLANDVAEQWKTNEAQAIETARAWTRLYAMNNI
# [18] = cells
# [19] = target: Major prion protein (Homo sapiens, UniProt P04156); assay type: functional, cell-based
# [20] = HepG2 cell cytotoxicity, dose response, cytotoxicity control, plate reader, dry powder samples (AID 1159569); assay type: functional, cell-based;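 also: inhibitor potency with signal falling toward the positive control level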
# [21] = P. falciparum Dd2 growth inhibitors, dose response, SYBR Green, cherry-picked samples (AID 1159567); assay type: functional, cell-based
# [22] = P. falciparum Dd2 growth inhibitors, dose response, SYBR Green, dry powder samples (AID 1159566); assay type: functional, cell-based;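 also: potency for growth inhibition with lower SYBR green DNA signal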
# [23] = P. falciparum 3D7-ScDHODH growth inhibitors, dose response, SYBR Green, dry powder samples (AID 1159570); assay type: functional, cell-based;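 also: parasite growth measured after 72 hours of compound exposure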
# [24] = HepG2 cell cytotoxicity, dose response, cytotoxicity control, cherry-picked samples (AID 1159577); assay type: functional, cell-based
# [25] = P. falciparum ATP4 D1247Y mutant growth inhibitors, dose response, NITD609-resistant line, SYBR Green, dry powder (AID 1159571); assay type: functional, cell-based;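 also: parasites synchronized at ring stage by sorbitol before testing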
structure (smiles),measurement,setting,value
COc1cccc(N2CCN(c3[nH]cnc4c5cc(F)ccc5nc3-4)CC2C)c1 (configuration not stated),EC50,[1],8.16 µM (active)
same,EC50,[2],9.04 µM (active)
same,IC50,[3],1.83 µM (active)
same,AC50,[4],6.99 µM (active)
same,EC50,[5],6.44 µM (active)
same,AC50,[6],9.99 µM (active)
same,AC50,[7],3.35 µM (active)
same,AC50,[8],0.49 µM (active)
same,AC50,[9],2.25 µM (active)
same,EC50,[10],6.14 µM (inconclusive)
same,EC50,[11],15.3 µM (active)
same,AC50,[12],1.31 µM (active)
same,EC50,[13],48.4 µM (active)
same,AC50,[14],3.06 µM (active)
same,AC50,[15],6.56 µM (active)
same,EC50,[16],8 µM (active)
Cc1ccc(NC(=O)CSc2ncnc3ccccc23)cc1S(=O)(=O)N1CCOCC1,IC50,[17],> 20 µM (inactive)
same,IC50,[18],> 138 µM (inactive)
same,IC50,[19],8.72 µM (active)
NC(=O)COC(=O)CC(NC(N)=O)c1ccc(Cl)cc1 (configuration not stated),AC50,[15],28.7 µM (active)
COc1cccc(NC(=O)N[C@H]2CC[C@H](CC(=O)Nc3ccc(-c4ccccc4)cc3)O[C@@H]2CO)c1,AC50,[7],44.3 µM (active)
same,AC50,[14],0.479 µM (active)
Cc1nc(N2[C@H](CO)[C@H](c3ccccc3)[C@H]2CNCC2CCCCC2)sc1C,AC50,[20],71.2 µM (active)
same,AC50,[21],1.13 µM (active)
same,AC50,[22],0.595 µM (active)
same,AC50,[23],1.03 µM (active)
same,AC50,[24],> 42 µM (inactive)
same,AC50,[25],0.691 µM (active)
C[C@H]1CN([C@@H](C)CO)S(=O)(=O)c2ccc(C#CC3CCCCC3)cc2O[C@H]1CN(C)C,AC50,[20],> 100 µM (inactive)
same,AC50,[22],4.6 µM (active)
same,AC50,[23],8.69 µM (active)
same,AC50,[25],2.42 µM (active)
